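In this assay, cells in 96-well plates receive the compound at five concentrations for 48 hours. Endpoints are linearly interpolated between the surrounding concentrations. GI50 is the concentration that inhibits growth by half. TGI marks complete inhibition of growth.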
What was measured:
Assay in all cases: NCI tumour cell line growth inhibition, 48 h
RXF 393 renal = system: RXF 393 renal
M14 melanoma = system: M14 melanoma
OVCAR-5 ovarian = system: OVCAR-5 ovarian
ACHN renal = system: ACHN renal
HCC-2998 colon = system: HCC-2998 colon
SF-268 CNS = system: SF-268 CNS
RPMI-8226 leukemia = system: RPMI-8226 leukemia
UACC-257 melanoma = system: UACC-257 melanoma
HCT-116 colon = system: HCT-116 colon
UACC-62 melanoma = system: UACC-62 melanoma
SN12C renal = system: SN12C renal
NCI-H226 lung = system: NCI-H226 lung
A498 renal = system: A498 renal
EKVX NSCLC = system: EKVX NSCLC
SF-295 CNS = system: SF-295 CNS
MDA-MB-231 breast = system: MDA-MB-231 breast
BT-549 breast = system: BT-549 breast
SW-620 colon = system: SW-620 colon
OVCAR-4 ovarian = system: OVCAR-4 ovarian
NCI-H522 lung = system: NCI-H522 lung
MALME-3M melanoma = system: MALME-3M melanoma
HL-60(TB) leukemia = system: HL-60(TB) leukemia
HCT-15 colon = system: HCT-15 colon
SR leukemia = system: SR leukemia
MDA-MB-468 breast = system: MDA-MB-468 breast
TK-10 renal = system: TK-10 renal
CCRF-CEM leukemia = system: CCRF-CEM leukemia
NCI-H460 lung = system: NCI-H460 lung
786-0 renal = system: 786-0 renal

## CC(C)Sc1nc(NCCc2c[nH]c3ccccc23)c(C#N)c(-c2ccccc2)n1
RXF 393 renal
  GI50: 6.66 µM
  TGI: 20.3 µM
M14 melanoma
  GI50: 13.8 µM
  TGI: 28.4 µM
OVCAR-5 ovarian
  GI50: 12.1 µM
  TGI: 25.2 µM
ACHN renal
  GI50: 14.3 µM
  TGI: 28 µM
HCC-2998 colon
  GI50: 10 µM
  TGI: 22.6 µM
SF-268 CNS
  GI50: 18.4 µM
  TGI: 48.3 µM
RPMI-8226 leukemia
  GI50: 11.4 µM
  TGI: > 100 µM
UACC-257 melanoma
  GI50: 18.8 µM
  TGI: 41.8 µM
HCT-116 colon
  GI50: 5.17 µM
  TGI: 18.5 µM
UACC-62 melanoma
  GI50: 14.4 µM
  TGI: 27.6 µM
SN12C renal
  GI50: 13.3 µM
  TGI: 26.2 µM
NCI-H226 lung
  GI50: 13 µM
  TGI: 27.3 µM
A498 renal
  GI50: 15.1 µM
  TGI: 29.5 µM
EKVX NSCLC
  GI50: 12.1 µM
  TGI: 31.1 µM
SF-295 CNS
  GI50: 13.7 µM
  TGI: 29.6 µM
MDA-MB-231 breast
  GI50: 11.8 µM
  TGI: 27.3 µM
BT-549 breast
  GI50: 13.2 µM
  TGI: 26.6 µM
SW-620 colon
  GI50: 10.3 µM
  TGI: 26 µM
OVCAR-4 ovarian
  GI50: 13.4 µM
  TGI: 36.4 µM
NCI-H522 lung
  GI50: 15.3 µM
  TGI: 30.9 µM
MALME-3M melanoma
  GI50: 16.5 µM
  TGI: 30.7 µM
HL-60(TB) leukemia
  GI50: 13.5 µM
  TGI: > 100 µM
HCT-15 colon
  GI50: 5.38 µM
  TGI: 18.2 µM
SR leukemia
  GI50: 5.25 µM
  TGI: > 100 µM
MDA-MB-468 breast
  GI50: 3.12 µM
  TGI: 9.98 µM
TK-10 renal
  GI50: 22.8 µM
  TGI: 46.8 µM
CCRF-CEM leukemia
  GI50: 9.41 µM
  TGI: > 100 µM
NCI-H460 lung
  GI50: 8.41 µM
  TGI: 27.9 µM
786-0 renal
  GI50: 12.6 µM

— PubChem BioAssay (NCI)
